In patent publication US20080064758A1, “METHOD OF TREATMENT OR PROPHYLAXIS OF DEPRESSION” (MediciNova, Inc., priority 2006, published 2008):
Structures can show the parent of a compound that is named as a salt.

Legend:
[1] = tested on: reserpine-induced hypothermia; assay: Antagonism of the reserpine-induced hypothermia; format: in vivo, mice; details: given 4 hours after reserpine 2.5 mg/kg i.p.; rectal temperature 90 min after compound
Procedure: Antagonism of the Reserpine-Induced Hypothermia
The compounds of a general formula (I) as well as the reference compounds are administered 4 hours after reserpine (2.5 mg/kg i.p.). Rectal temperature is measured 90 minutes after the administration of the compounds to be tested.

[2] = tested on: apomorphine-induced hypothermia; assay: Antagonism of apomorphine-induced hypothermia; format: in vivo; details: male CD1 mice; i.p.; apomorphine 16 mg/kg s.c.; rectal temperature 30 min after apomorphine
Procedure: Antagonism of Apomorphine-Induced Hypothermia (A. J. Puech et al., Psychopharmacology (1981) 75(1):84-91)
Male CD1 mice (Charles River) weighing 22-25 g are used in the test. The mice are housed individually in transparent plastic cages. The compounds of a general formula (I) as well as the reference compounds are suspended in 1% aqueous carboxymethylcellulose and administered intraperitoneally (10 ml/kg; 6 mice per dose). Control animals received the vehicle only.
Rectal temperature is measured using a probe carrying a thermoelectric couple (connected to a galvanometer) inserted to a constant depth.
The compounds to be tested as well as the vehicle are administered 30 minutes after basal rectal temperature is measured, and 30 minutes later apomorphine (16 mg/kg) is administered subcutaneously. Rectal temperature is measured again 30 minutes after the administration of apomorphine.
The results are expressed as average rectal temperature of each group, by evaluating the significant differences in temperature between treated and control mice by Student's t test, and are used for calculating the M.A.D., i.e., the minimal active dose.

immobility of mice = assay: Tail suspension; format: in vivo; details: 30 mg/kg PO, reference
Procedure: Compounds of a general formula (I) (starting at an initial dose of 30 mg/kg PO, 1 hr pretreatment) were administered to mice (n=5). A reduction of immobility by 50% or more relative to a vehicle-treated control group indicates possible antidepressant activity. Fluoxetine hydrochloride served as a standard reference compound. […] There was a 35% mobility reduction at 100 mg/kg PO, 54% mobility reduction at 10 mg/kg PO and 46% mobility reduction at 1 mg/kg PO.

| SMILES | M.A.D. (minimal active dose), antagonism of reserpine-induced hypothermia [1] | M.A.D. (minimal active dose), antagonism of apomorphine-induced hypothermia [2] [mg/kg i.p.] | reduction of immobility (immobility of mice) [%] |
| --- | --- | --- | --- |
| CCOC(=O)COc1cccc([C@@H]2CCC[C@@H](NC[C@H](O)c3cccc(Cl)c3)C2)c1 [Compound A, 3-[(1R,3R)-3-[(2R)-2-(3-chlorophenyl)-2-hydroxyethylamino]cyclohexyl]-phenoxy acetic acid ethyl ester, maleate salt] | closer to clenbuterol (0.03 mg/kg i.p.) than salbutamol (3.0 mg/kg i.p.) | – | – |
| CC(C)(C)NCC(O)c1cc(Cl)c(N)c(Cl)c1 (stereo not drawn) [clenbuterol] | 0.03 mg/kg i.p. | 0.03 | – |
| CNCCC(Oc1ccc(C(F)(F)F)cc1)c1ccccc1 (stereo not drawn) [fluoxetine, Fluoxetine hydrochloride] | – | – | 87 |
| CC(C)(C)NCC(O)c1ccc(O)c(CO)c1 (stereo not drawn) [salbutamol] | 3.0 mg/kg i.p. | 1.0 | – |
